Experimental data from paper doi:10.1101/2024.12.01.626272v1 (biorxiv, 2024).

Biological target: T1, olaAHR2a (Oryzias latipes, UniProt A0A2I4U6J3)
T1 sequence (A0A2I4U6J3 1-904): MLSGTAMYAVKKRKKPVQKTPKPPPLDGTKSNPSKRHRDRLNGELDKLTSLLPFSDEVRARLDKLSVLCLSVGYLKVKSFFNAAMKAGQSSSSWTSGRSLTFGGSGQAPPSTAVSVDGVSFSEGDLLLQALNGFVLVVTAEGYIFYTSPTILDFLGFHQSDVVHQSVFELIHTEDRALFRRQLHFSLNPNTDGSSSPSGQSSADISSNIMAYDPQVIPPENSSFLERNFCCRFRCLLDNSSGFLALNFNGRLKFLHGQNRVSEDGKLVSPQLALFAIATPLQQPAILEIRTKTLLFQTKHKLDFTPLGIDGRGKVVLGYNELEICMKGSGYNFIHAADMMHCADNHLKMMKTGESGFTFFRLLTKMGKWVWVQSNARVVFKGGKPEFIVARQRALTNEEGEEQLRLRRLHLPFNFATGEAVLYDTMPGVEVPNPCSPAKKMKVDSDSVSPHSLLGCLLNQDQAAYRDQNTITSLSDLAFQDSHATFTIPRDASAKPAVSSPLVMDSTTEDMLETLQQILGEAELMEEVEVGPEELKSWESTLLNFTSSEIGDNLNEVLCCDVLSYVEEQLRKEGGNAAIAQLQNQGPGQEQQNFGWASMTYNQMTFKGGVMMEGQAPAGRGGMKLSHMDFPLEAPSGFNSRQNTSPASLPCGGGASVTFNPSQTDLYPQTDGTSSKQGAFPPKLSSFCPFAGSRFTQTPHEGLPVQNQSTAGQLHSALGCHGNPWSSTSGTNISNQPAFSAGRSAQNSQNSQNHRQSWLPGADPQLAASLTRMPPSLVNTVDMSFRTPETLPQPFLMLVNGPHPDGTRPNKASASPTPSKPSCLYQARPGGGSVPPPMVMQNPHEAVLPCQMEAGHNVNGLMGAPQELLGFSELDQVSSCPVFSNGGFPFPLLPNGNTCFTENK
Test: luciferase reporter transactivation
Assay type: cell-based

EC50: 19.4 ± 1.98 nM
Structure (SMILES): O=c1cc(-c2ccccc2)oc2ccc3ccccc3c12 [BNF]
